Experiments:
[1] = target: T1, estrogen receptor alpha (ERalpha) (Homo sapiens, UniProt P03372); test: Estrogen-R (α) competitor screening kit, ligand binding screen; conditions: for IC50: ER alpha competitor binding, non-linear regression, one site competition; for RBA (Relative binding affinity): IC50 of estradiol divided by IC50 of the tested compound, multiplied by 100, Estradiol = 100; for % Binding to ERα: mean ± S.E.M., n = 4
T1 construct: purchased Wako Chemicals (Osaka, Japan)
T1 sequence (P03372 1-595): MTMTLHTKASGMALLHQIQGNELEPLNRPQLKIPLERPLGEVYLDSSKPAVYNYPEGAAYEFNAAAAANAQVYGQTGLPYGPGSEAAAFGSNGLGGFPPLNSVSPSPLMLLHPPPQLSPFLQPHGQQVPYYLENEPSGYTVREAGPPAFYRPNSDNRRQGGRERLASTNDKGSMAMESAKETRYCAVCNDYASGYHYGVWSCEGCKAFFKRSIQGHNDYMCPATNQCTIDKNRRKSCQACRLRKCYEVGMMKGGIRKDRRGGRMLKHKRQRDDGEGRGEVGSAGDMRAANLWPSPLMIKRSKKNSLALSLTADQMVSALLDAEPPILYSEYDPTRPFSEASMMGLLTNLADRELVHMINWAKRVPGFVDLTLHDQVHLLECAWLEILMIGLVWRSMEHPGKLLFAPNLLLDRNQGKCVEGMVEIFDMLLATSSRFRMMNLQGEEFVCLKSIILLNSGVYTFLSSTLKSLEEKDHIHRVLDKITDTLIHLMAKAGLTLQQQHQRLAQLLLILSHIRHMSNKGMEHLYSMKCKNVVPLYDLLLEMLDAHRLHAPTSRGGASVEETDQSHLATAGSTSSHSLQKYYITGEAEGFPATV
Description: An estrogen-R (α) competitor screening kit was purchased from Wako Chemicals (Osaka, Japan). The assay depends on the competition between the samples applied in different concentrations and the labeled estrogen mixture. The amount of the ligand that binds to the ERalpha coated on the microplate well is determined by the dynamic equilibrium among all the ligand concentrations in the mixture, the difference of their binding affinities to the receptor, and the incubation time. Therefore, the reduction in fluorescence intensities from the labeled estrogen retained is an indication of the affinity of the added compounds to the estrogen receptor. (−)-Arctigenin (8) and its metabolites were tested in 10^−5, 10^−4, 5 × 10^−4, and 5 × 10^−3 M concentrations. […] The results were calculated as percentages of the negative control.
Each set of experiments was repeated at least three times. Values are expressed as mean ± S.E.M. One-way analysis of variance followed by Dunnett’s test was used for statistical analysis. The IC50 was calculated using a non-linear regression analysis (for one site competition).

[2] = system: MCF-7 human breast cancer cells; design: method as in earlier work; conditions: estradiol-mediated proliferative characteristics; ref 10 (Xie et al.); cited from earlier work
[3] = compound at 5 × 10^−3 M, percentage of the negative control
[4] = compound at 5 × 10^−4 M, percentage of the negative control
[5] = compound at 10^−4 M, percentage of the negative control
[6] = compound at 10^−5 M, percentage of the negative control (labeled estrogen mixture)

SMILES	IC50 [1] [mM]	RBA (Relative binding affinity) [1]	% Binding to ERα [1, 3] [%]	% Binding to ERα [1, 4] [%]	% Binding to ERα [1, 5] [%]	% Binding to ERα [1, 6] [%]	proliferation of MCF-7 human breast cancer cells [2]
O=C1OC[C@H](Cc2ccc(O)c(O)c2)[C@H]1Cc1ccc(O)c(O)c1 [Compound 1, (−)-dihydroxyenterolactone]	1.6	1.2 × 10^−3	65.3 ± 0.2	34.8 ± 1.3	13.7 ± 0.7	5.6 ± 3.3	–
COc1cc(C[C@H]2C(=O)OC[C@@H]2Cc2ccc(O)c(O)c2)ccc1O [Compound 2, (2R,3R)-2-(4-hydroxy-3-methoxybenzyl)-3-(3,4-dihydroxybenzyl)-butyrolactone]	0.79	2.5 × 10^−3	67.7 ± 0.2	44.4 ± 0.9	13.5 ± 2.0	1.4 ± 1.2	–
COc1ccc(C[C@H]2COC(=O)[C@@H]2Cc2ccc(O)c(O)c2)cc1O [Compound 4]	2.5	7.9 × 10^−4	63.2 ± 0.3	19.6 ± 2.3	−0.5 ± 0.7	1.0 ± 1.4	–
COc1ccc(C[C@H]2COC(=O)[C@@H]2Cc2ccc(O)c(O)c2)cc1OC [Compound 6]	2.5	7.9 × 10^−4	64.5 ± 0.2	16.6 ± 0.9	1.4 ± 2.4	−2.3 ± 0.9	stimulated the proliferation
COc1cc(C[C@H]2C(=O)OC[C@@H]2Cc2ccc(OC)c(OC)c2)ccc1O [Compound 8, (−)-arctigenin]	> 5	–	19.4 ± 1.5	−4.1 ± 3.5	−4.3 ± 0.8	−1.4 ± 0.8	–

Continued, in another order:

IC50 [1] [mM]	RBA (Relative binding affinity) [1]	% Binding to ERα [1, 3] [%]	% Binding to ERα [1, 4] [%]	% Binding to ERα [1, 5] [%]	% Binding to ERα [1, 6] [%]	SMILES	proliferation of MCF-7 human breast cancer cells [2]
1.9	1.0 × 10^−3	67.5 ± 0.2	25.8 ± 0.8	14.1 ± 1.3	2.2 ± 1.6	COc1cc(C[C@H]2COC(=O)[C@@H]2Cc2ccc(O)c(O)c2)ccc1O [Compound 3]	–
> 5	–	17.6 ± 1.1	0.1 ± 2.6	18.1 ± 9.0	0.4 ± 0.9	COc1cc(C[C@H]2COC(=O)[C@@H]2Cc2ccc(O)c(OC)c2)ccc1O [Compound 5, (−)-matairesinol]	–
> 5	–	30.1 ± 1.7	−4.2 ± 0.8	1.2 ± 1.7	3.6 ± 0.6	COc1ccc(C[C@H]2COC(=O)[C@@H]2Cc2ccc(O)c(OC)c2)cc1O [Compound 7]	–
